Laboratory results published in publication PMC4969531, “Enhanced Absorption Study of Ginsenoside Compound K (20-O-β-(D-Glucopyranosyl)-20(S)-protopanaxadiol) after Oral Administration of Fermented Red Ginseng Extract (HYFRG™) in Healthy Korean Volunteers and Rats” (Evidence-based Complementary and Alternative Medicine : eCAM, 2016).

Tests used:
[1] = Stability of compound K working stock solution in methanol; type: physicochemical; details: n = 3
Protocol: Stock solutions of compound K and IS were prepared separately by dissolving the accurately weighed compounds in methanol for a final concentration of 1000 μg/mL. The prepared stock solutions were stored in −80°C when not in use. Working solutions of compound K were prepared by serial dilution of the stock solution in methanol. Calibration standards were prepared by spiking 10 μL of the appropriate standard solutions to 190 μL of blank plasma for concentrations of 1, 5, 10, 50, 100, 500, and 1000 ng/mL. QC samples were prepared in the same manner as the calibration standards, for low, middle, and high concentrations of 3, 300, and 800 ng/mL. IS working solution (5 μg/mL) for routine use was freshly prepared by diluting IS stock solution in methanol. The standard and QC samples were extracted on each analysis run using the same procedure described below. […] The specificity of the method towards endogenous plasma matrix substances was assessed in double blank human plasma (without compound K and IS). […] Then, the chromatograms obtained from the sample spiked with compound K at lower limit of quantitation (LLOQ) and IS and actual plasma samples from a volunteer after oral administration of compound K were compared with those obtained from blank samples. The calibration curve was constructed by plotting the peak area ratios (y) of compound K to IS against the spiked concentrations (x) of compound K. Linearity was assessed by weighted (1/x) least squares regression analysis. […] It should be quantified with an acceptable bias within ±20% and a CV no greater than 20%. The LLOQ was determined as the concentrations with a signal to noise (S/N) ratio of 10. […] Precision is expressed as a coefficient of variance (CV) at each concentration. The accuracy of the assay was defined as a percentage of the measured concentration over the theoretical concentration. The acceptance criterion recommended by KFDA and USFDA for each back-calculated standard concentration is 20% deviation from the nominal for LLOQ and 15% for all others (KFDA 2013, USFDA 2013). […]

[2] = Stability of compound K in human plasma (bench-top, refrigerator, freezer, freeze-thaw, extracted samples); type: in vitro ADME; details: n = 3; for Stability of extracted, autosampler (4°C), 20 h: extracted plasma sample; for Compound K in plasma, 4°C, 17 h / Compound K in plasma, room temperature, 17 h / Compound K in plasma, −80°C, 17 h / Freeze-thaw stability, three cycles, −80°C: human plasma
Protocol: The LC-MS/MS method to determine compound K in human and rat plasma was validated and established in terms of specificity, sensitivity, linearity, accuracy, precision, recovery, matrix effect, and stability according to the bioanalytical method validation guidelines published by Korea Food and Drug Administration (KFDA) and USFDA [23, 24]. The specificity of the method towards endogenous plasma matrix substances was assessed in double blank human plasma (without compound K and IS). Double blank samples from six different lots of human blank plasma were tested for the presence of endogenous substances, which may interfere with compound K and IS using described above procedures and chromatographic/spectroscopic conditions. Then, the chromatograms obtained from the sample spiked with compound K at lower limit of quantitation (LLOQ) and IS and actual plasma samples from a volunteer after oral administration of compound K were compared with those obtained from blank samples. The calibration curve was constructed by plotting the peak area ratios (y) of compound K to IS against the spiked concentrations (x) of compound K. Linearity was assessed by weighted (1/x) least squares regression analysis. LLOQ was defined as the lowest concentration on the calibration curve. It should be quantified with an acceptable bias within ±20% and a CV no greater than 20%. The LLOQ was determined as the concentrations with a signal to noise (S/N) ratio of 10. The intra- and interday precision and accuracy assessments were performed on the same day (n = 5, at each concentration) and on three consecutive days at four concentrations ([…]). Precision is expressed as a coefficient of variance (CV) at each concentration. The accuracy of the assay was defined as a percentage of the measured concentration over the theoretical concentration. The acceptance criterion recommended by KFDA and USFDA for each back-calculated standard concentration is 20% deviation from the nominal for LLOQ and 15% for all others (KFDA 2013, USFDA 2013). The relative recovery, absolute matrix effect, and process efficiency were determined at three QC concentrations (3, 300, and 800 ng/mL, n = 3) of compound K and IS (500 ng/mL, n = 9). The relative recovery was measured by comparing the peak areas obtained from plasma samples spiked before extraction with those from plasma samples spiked after extraction. The absolute matrix effect was measured by comparing the peak response of plasma samples spiked after extraction with that of pure standards containing equivalent amounts of compound K and IS prepared in mobile phase. The process efficiency wasmeasured by comparing the peak response of plasma samples spiked before extraction with that of the pure standards containing equivalent amounts of compound K and IS prepared in mobile phase. […] The predicted concentrations of compound K at 3, 300, and 800 ng/mL samples differed by not more than 15% of the nominal concentrations in a set of stability tests, namely, in injector (20 h), bench-top (17 h), three repeated freeze-thaw cycles, and freezer stability at −80°C for 17 h. […] Although several analytical methods have been used to determine compound K concentrations in human plasma with LC-MS/MS using solid phase extraction or protein precipitation, we developed the fully validated analytical method optimized for our laboratory settings to meet both KFDA and USFDA guidelines for validating a bioanalytical method. Our analytical method was successfully used to evaluate the comparative pharmacokinetics of two red ginseng HYFRG or RG extracts in Koreans.

CC(C)=CCCC(C)(OC1OC(CO)C(O)C(O)C1O)C1CCC2(C)C1C(O)CC1C3(C)CCC(O)C(C)(C)C3CCC12C [Compound K, 20-O-β-(D-glucopyranosyl)-20(S)-protopanaxadiol]
Working stock solution stability, room temperature, 6 h ([1]; nominal 3 ng/mL): 89.08 ± 3.89%
Working stock solution stability, room temperature, 6 h ([1]; nominal 300 ng/mL): 89.11 ± 7.13%
Working stock solution stability, room temperature, 6 h ([1]; nominal 800 ng/mL): 96.13 ± 7.43%
Stability of extracted, autosampler (4°C), 20 h ([2]; nominal 3 ng/mL): 110.43 ± 12.89%
Compound K in plasma, 4°C, 17 h ([2]; nominal 3 ng/mL): 112.11 ± 5.08%
Compound K in plasma, room temperature, 17 h ([2]; nominal 3 ng/mL): 110.12 ± 3.01%
Compound K in plasma, −80°C, 17 h ([2]; nominal 3 ng/mL): 115.04 ± 2.66%
Freeze-thaw stability, three cycles, −80°C ([2]; nominal 3 ng/mL): 109.09 ± 7.07%
Stability of extracted, autosampler (4°C), 20 h ([2]; nominal 300 ng/mL): 102.96 ± 4.83%
Compound K in plasma, 4°C, 17 h ([2]; nominal 300 ng/mL): 110.62 ± 2.31%
Compound K in plasma, room temperature, 17 h ([2]; nominal 300 ng/mL): 106.83 ± 3.20%
Compound K in plasma, −80°C, 17 h ([2]; nominal 300 ng/mL): 108.30 ± 1.60%
Freeze-thaw stability, three cycles, −80°C ([2]; nominal 300 ng/mL): 109.70 ± 2.38%
Stability of extracted, autosampler (4°C), 20 h ([2]; nominal 800 ng/mL): 103.46 ± 3.48%
Compound K in plasma, 4°C, 17 h ([2]; nominal 800 ng/mL): 107.40 ± 2.45%
Compound K in plasma, room temperature, 17 h ([2]; nominal 800 ng/mL): 107.54 ± 0.20%
Compound K in plasma, −80°C, 17 h ([2]; nominal 800 ng/mL): 104.95 ± 1.42%
Freeze-thaw stability, three cycles, −80°C ([2]; nominal 800 ng/mL): 106.13 ± 5.46%
